Earlier results on one molecule are cited in patent publication US20170261495A1, “MODEL SYSTEMS FOR SCREENING MODULATORS OF mTOR SIGNALING” (SHRINERS HOSPITALS FOR CHILDREN, priority 2015, published 2017).

The structures appear in SMILES notation.

The conditions of this data set: clinical trials.

On to `CO[C@H]1C[C@@H]2CC[C@@H](C)[C@@](O)(O2)C(=O)C(=O)N2CCCC[C@H]2C(=O)O[C@H]([C@H](C)C[C@@H]2CC[C@@H](OCCO)[C@H](OC)C2)CC(=O)[C@H](C)/C=C(\C)[C@@H](O)[C@@H](OC)C(=O)[C@H](C)C[C@H](C)/C=C/C=C/C=C/1C` [everolimus], for which, under “TSC”, the effects on epilepsy entry is “minimal”. Moreover, the “size of renal and brain tumors” value (TSC (Krueger et al., 2010)) is given as “clear reduction”.
